From EP4603105A1, “PHARMACEUTICAL COMPOSITION CONTAINING CYCLIC COMPOUND HAVING SELECTIVE KRAS INHIBITORY EFFECT AGAINST HRAS AND NRAS” (CHUGAI SEIYAKU KABUSHIKI KAISHA, priority 2022, dated 2024)
Where a SMILES comes first, the peptide text is derived from it. Bridges are numbered along the chain shown (N, C = ends). [ ]: non-standard residue; d: D form. The star is where a group is joined. hPhe(3,5-F2-4-CF3) = N[C@@H](CCc1cc(F)c(C(F)(F)F)c(F)c1)C(=O)O; hPhe(3-Cl-4-CF3) = N[C@@H](CCc1ccc(C(F)(F)F)c(Cl)c1)C(=O)O; NPrPhe(4-CF3) = CCCN[C@@H](Cc1ccc(C(F)(F)F)cc1)C(=O)O; NEtPhe(4-Me) = CCN[C@@H](Cc1ccc(C)cc1)C(=O)O; NMePhe(4-Me) = CN[C@@H](Cc1ccc(C)cc1)C(=O)O; NMeGly(cPent) = CN[C@H](C(=O)O)C1CCCC1; Pro(4,4-F2) = O=C(O)[C@@H]1CC(F)(F)CN1; NMeD = CN[C@@H](CC(=O)O)C(=O)O; Ac4c(3-oxa) = NC1(C(=O)O)COC1; NMeL = CN[C@@H](CC(C)C)C(=O)O; Morpholide = C1CN(*)CCO1; Ac5c = NC1(C(=O)O)CCCC1; Aze = O=C(O)[C@@H]1CCN1; Ac4c = NC1(C(=O)O)CCC1; NPrGly = CCCNCC(=O)O; NEtG = CCNCC(=O)O; Sar = CNCC(=O)O

Columns and labels:
[1] = molecular target: HRAS wild-type protein (Homo sapiens, UniProt P01112); assay: Binding to HRAS by surface plasmon resonance (SPR), KD and KD ratio to KRAS
Sequence of HRAS wild-type protein (P01112 whole entry): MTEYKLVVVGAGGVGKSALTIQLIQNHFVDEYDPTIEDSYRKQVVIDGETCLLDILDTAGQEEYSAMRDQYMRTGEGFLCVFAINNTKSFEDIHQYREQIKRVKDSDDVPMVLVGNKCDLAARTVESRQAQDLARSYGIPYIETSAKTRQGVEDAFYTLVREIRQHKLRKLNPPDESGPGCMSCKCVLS
Outline: (§1)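 Biotinylated GDP-bound RAS was captured at about 100–300 RU. Running buffer: HBS pH 7.4, 10 mM MgCl2, 10 µM GDP, 1 mM DTT, 0.01% Tween 20, 4% DMSO.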

[2] = tested on: human lung cancer strain NCI-H441; type: cell-based
Outline: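 Step one: dispense the test compound in serial DMSO dilutions. Step three: add the reagent and measure […].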

[3] = molecular target: GDP-bound NRAS wild-type protein (Homo sapiens, UniProt P01111); assay: Binding to NRAS by surface plasmon resonance (SPR), KD and KD ratio to KRAS
Sequence of GDP-bound NRAS wild-type protein (P01111 whole entry): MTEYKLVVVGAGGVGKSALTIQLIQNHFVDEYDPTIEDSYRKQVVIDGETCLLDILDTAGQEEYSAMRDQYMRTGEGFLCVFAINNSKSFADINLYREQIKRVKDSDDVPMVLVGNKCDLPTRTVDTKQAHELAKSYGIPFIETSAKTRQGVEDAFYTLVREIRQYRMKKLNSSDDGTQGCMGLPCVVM
Outline: as §1

[4] = ratio of KD for HRAS wild-type protein to KD for KRAS
[5] = ratio of KD for GDP-bound NRAS wild-type protein to KD for KRAS
[6] = ratio of the KD value with respect to HRAS wild-type protein to the KD value with respect to KRAS
[7] = ratio of the KD value with respect to GDP-bound NRAS wild-type protein to the KD value with respect to KRAS
[8] = ratio of KD value for HRAS wild-type protein to KD value for KRAS (SPR)
[9] = ratio of KD value for GDP-bound NRAS wild-type protein to KD value for KRAS (SPR)

| SMILES | IC50 [2] | HRAS /KRAS [1, 4] | NRAS /KRAS [3, 5] | HRAS /KRAS [1, 6] | NRAS /KRAS [3, 7] | HRAS /KRAS [1, 8] | NRAS /KRAS [3, 9] |
| --- | --- | --- | --- | --- | --- | --- | --- |
| CCCN1C(=O)CN(C)C(=O)CN(CC)C(=O)[C@H]([C@@H](C)CC)NC(=O)[C@H](CC(C)C)N(C)C(=O)C[C@@H](C(=O)N(C)C)N(C)C(=O)[C@H](C2CCCC2)N(C)C(=O)C2(CCC2)NC(=O)[C@@H]2CC(F)(F)CN2C(=O)[C@H](CCc2ccc(C(F)(F)F)c(Cl)c2)NC(=O)CN(C)C(=O)[C@@H]1Cc1ccc(C(F)(F)F)cc1 [PP0426] ([NMeL]I[NEtG][Sar][NPrPhe(4-CF3)][Sar][hPhe(3-Cl-4-CF3)][Pro(4,4-F2)][Ac4c][NMeGly(cPent)][NMeD]-NMe2; lactam N-11) | 4.8 nM | – | – | C (A compound having a KD ratio of 0.1 or more and less than 3 is denoted as C) | C (A compound having a KD ratio of 0.1 or more and less than 3 is denoted as C) | – | – |
| CCCN1CC(=O)N(C)[C@@H](Cc2ccc(C)cc2)C(=O)N(C)CC(=O)N[C@@H](CCc2ccc(C(F)(F)F)c(Cl)c2)C(=O)N2CCC[C@H]2C(=O)NC2(CCCC2)C(=O)N(C)[C@@H](C2CCCC2)C(=O)N(C)[C@H](C(=O)N2CCOCC2)CC(=O)N(C)[C@@H](CC(C)C)C(=O)N[C@@H]([C@@H](C)CC)C(=O)N(C)CC1=O [PP0020] ([NMeL]I[Sar][NPrGly][NMePhe(4-Me)][Sar][hPhe(3-Cl-4-CF3)]P[Ac5c][NMeGly(cPent)][NMeD]-Morpholide; lactam N-11) | 9.9 nM | C (A compound having a KD ratio of 0.1 or more and less than 3 is denoted as C) | C (A compound having a KD ratio of 0.1 or more and less than 3 is denoted as C) | – | – | – | – |
| CCCN1C(=O)CN(C)C(=O)CN(C)C(=O)[C@H]([C@@H](C)CC)NC(=O)[C@H](CC(C)C)N(C)C(=O)C[C@@H](C(=O)N(C)C)N(C)C(=O)[C@H](C2CCCC2)N(C)C(=O)C2(CCCC2)NC(=O)[C@@H]2CCCN2C(=O)[C@H](CCc2cc(F)c(C(F)(F)F)c(F)c2)NC(=O)CN(C)C(=O)[C@@H]1Cc1ccc(C(F)(F)F)cc1 [PP0788] ([NMeL]I[Sar][Sar][NPrPhe(4-CF3)][Sar][hPhe(3,5-F2-4-CF3)]P[Ac5c][NMeGly(cPent)][NMeD]-NMe2; lactam N-11) | 7.1 nM | C (A compound having a KD ratio of 0.1 or more and less than 3 is denoted as C) | B (a compound having 3 or more and less than 10 is denoted as B) | – | – | – | – |
| CC[C@H](C)[C@@H]1NC(=O)[C@H](CC(C)C)N(C)C(=O)C[C@@H](C(=O)N(C)C)N(CCC2CCCC2)C(=O)[C@H](C2CCCC2)N(C)C(=O)C2(CCC2)NC(=O)[C@@H]2CC(F)(F)CN2C(=O)[C@H](CCc2ccc(C(F)(F)F)c(Cl)c2)NC(=O)CN(C)C(=O)[C@H](Cc2ccc(F)cc2)N2CCCCC[C@@H](C2=O)N(C)C(=O)CN(C)C1=O [PP0977] | 1120 nM | A (a compound having 10 or more and less than 20 is denoted as A) | B (a compound having 3 or more and less than 10 is denoted as B) | – | – | – | – |
| CCCN1C(=O)CN(C)C(=O)[C@@H]2CCN2C(=O)[C@H]([C@@H](C)CC)NC(=O)[C@H](CC(C)C)N(C)C(=O)C[C@@H](C(=O)N2CCOCC2)N(C)C(=O)[C@H](C2CCCC2)N(C)C(=O)C2(COC2)NC(=O)[C@@H]2CCCN2C(=O)[C@H](CCc2cc(F)c(C(F)(F)F)c(F)c2)NC(=O)CN(C)C(=O)[C@@H]1Cc1ccc(C(F)(F)F)cc1 [PP0782] ([NMeL]I[Aze][Sar][NPrPhe(4-CF3)][Sar][hPhe(3,5-F2-4-CF3)]P[Ac4c(3-oxa)][NMeGly(cPent)][NMeD]-Morpholide; lactam N-11) | 425 nM | B (a compound having 3 or more and less than 10 is denoted as B) | B (a compound having 3 or more and less than 10 is denoted as B) | – | – | – | – |
| CC[C@H](C)[C@@H]1NC(=O)[C@H](CC(C)C)N(C)C(=O)C[C@@H](C(=O)N2CCOCC2)N(C)C(=O)[C@H](C2CCCC2)N(C)C(=O)C2(CCCC2)NC(=O)[C@@H]2CCCN2C(=O)[C@H](CCc2ccc(C(F)(F)F)c(Cl)c2)NC(=O)CN(CC)C(=O)[C@H](Cc2ccc(C)cc2)N(CC)C(=O)CN(CC)C(=O)CN(C)C1=O [PP0030] ([NMeL]I[Sar][NEtG][NEtPhe(4-Me)][NEtG][hPhe(3-Cl-4-CF3)]P[Ac5c][NMeGly(cPent)][NMeD]-Morpholide; lactam N-11) | 86.7 nM | C (A compound having a KD ratio of 0.1 or more and less than 3 is denoted as C) | C (A compound having a KD ratio of 0.1 or more and less than 3 is denoted as C) | – | – | – | – |
| CCO[C@@H]1C[C@H]2C(=O)NC3(CCC3)C(=O)N(C)[C@@H](C3CCCC3)C(=O)N(C)[C@H](C(=O)N3CCOCC3)CC(=O)N(C)[C@@H](COC)C(=O)N[C@@H]([C@@H](C)CC)C(=O)N(C)CC(=O)N(C)[C@H]3CCCCCN(C3=O)[C@@H](Cc3ccc(C(F)(F)F)cc3)C(=O)N(C)CC(=O)N[C@@H](CCc3ccc(C)cc3)C(=O)N2C1 [PP0850] | 3090 nM | B (a compound having 3 or more and less than 10 is denoted as B) | B (a compound having 3 or more and less than 10 is denoted as B) | – | – | – | – |
| CCO[C@@H]1C[C@H]2C(=O)NC3(CCC3)C(=O)N(C)[C@@H](C3CCCC3)C(=O)N(CC)[C@H](C(=O)N3CCOCC3)CC(=O)N(C)[C@@H](CC)C(=O)N[C@@H]([C@@H](C)CC)C(=O)N(C)CC(=O)N(C)[C@H]3CCCCCN(C3=O)[C@@H](Cc3ccc(C(F)(F)F)cc3)C(=O)N(C)CC(=O)N[C@@H](CCc3cc(F)c(C(F)(F)F)c(F)c3)C(=O)N2C1 [PP0944] | 344 nM | A (a compound having 10 or more and less than 20 is denoted as A) | A (a compound having 10 or more and less than 20 is denoted as A) | – | – | – | – |

Continued, in another order:

| IC50 [2] | SMILES | HRAS /KRAS [1, 4] | NRAS /KRAS [3, 5] | HRAS /KRAS [1, 6] | NRAS /KRAS [3, 7] | HRAS /KRAS [1, 8] | NRAS /KRAS [3, 9] |
| --- | --- | --- | --- | --- | --- | --- | --- |
| 16.7 nM | CCC[C@H]1C(=O)N[C@@H]([C@@H](C)CC)C(=O)N(C)CC(=O)N(C)[C@H]2C/C=C\CCN(C2=O)[C@@H](Cc2ccc(C(F)(F)F)cc2)C(=O)N(C)CC(=O)N[C@@H](CCc2ccc(C(F)(F)F)c(Cl)c2)C(=O)N2C[C@H](OCC)C[C@H]2C(=O)NC2(CC(C)(C)C2)C(=O)N(C)[C@@H](CC(F)(F)F)C(=O)N(C)[C@H](C(=O)N(C)C)CC(=O)N1C [PP2975] | A (a compound having 10 or more and less than 20 is denoted as A) | A (a compound having 10 or more and less than 20 is denoted as A) | – | – | – | – |
| 6.7 nM | CCCN(C)C(=O)[C@@H]1CC(=O)N(C)[C@@H](CC)C(=O)N[C@@H]([C@@H](C)CC)C(=O)N(C)CC(=O)N(C)[C@H]2C/C=C\CCN(C2=O)[C@@H](Cc2ccc(C(F)(F)F)cc2)C(=O)N(C)CC(=O)N[C@@H](CCc2cc(F)c(C(F)(F)F)c(F)c2)C(=O)N2C[C@H](OCC)C[C@H]2C(=O)NC2(CC(C)(C)C2)C(=O)N(C)[C@@H](C2CCCC2)C(=O)N1C [PP1670] | – | – | – | – | A (a compound having 10 or more and less than 20 is denoted as A) | A (a compound having 10 or more and less than 20 is denoted as A) |
| 1.6 nM | CCC[C@H]1C(=O)N[C@@H]([C@@H](C)CC)C(=O)N(C)CC(=O)N(C)[C@H]2C/C=C\CCN(C2=O)[C@@H](Cc2ccc(C(F)(F)F)cc2)C(=O)N(C)CC(=O)N[C@@H](CCc2ccc(C(F)(F)F)c(OC)c2)C(=O)N2C[C@H](OCC)C[C@H]2C(=O)N(C)C2(CCC2)C(=O)N(C)[C@@H](C2CCCC2)C(=O)N(C)[C@H](C(=O)N(C)C)CC(=O)N1C [PP2312] | – | – | B (a compound having 3 or more and less than 10 is denoted as B) | A (a compound having 10 or more and less than 20 is denoted as A) | – | – |
| 1.8 nM | CC[C@H](C)[C@@H]1NC(=O)[C@H](CC(F)(F)F)N(C)C(=O)C[C@@H](C(=O)N(C)C)N(C)C(=O)[C@H](C2CCCC2)N(C)C(=O)C2(CC(C)(C)C2)NC(=O)[C@@H]2CCCN2C(=O)[C@H](CCc2cc(F)c(C(F)(F)F)c(F)c2)NC(=O)CN(C)C(=O)[C@H](Cc2ccc(C(F)(F)F)cc2)N2CC/C=C\C[C@@H](C2=O)N(C)C(=O)CN(C)C1=O [PP1722] | – | – | – | – | A (a compound having 10 or more and less than 20 is denoted as A) | AA (a compound having 20 or more is denoted as AA) |
| 16 nM | CCC[C@@H]1C[C@H]2C(=O)NC3(CC(C)(C)C3)C(=O)N(C)[C@@H](C3CCCC3)C(=O)N(C)[C@H](C(=O)N(C)C)CC(=O)N(C)[C@@H](C)C(=O)N[C@@H]([C@@H](C)CC)C(=O)N(C)CC(=O)N(C)[C@H]3C/C=C\CCN(C3=O)[C@@H](Cc3ccc(C(F)(F)F)cc3)C(=O)N(C)CC(=O)N[C@@H](CCc3cc(F)c(C(F)(F)F)c(F)c3)C(=O)N2C1 [PP2273] | – | – | A (a compound having 10 or more and less than 20 is denoted as A) | AA (a compound having 20 or more is denoted as AA) | – | – |
| 78.2 nM | CCO[C@@H]1C[C@H]2C(=O)NC3(CCC3)C(=O)N(C)[C@@H](C(CC)CC)C(=O)N(C)[C@H](C(=O)N(C)C)CC(=O)N(C)[C@@H](CC(C)C)C(=O)N[C@@H]([C@@H](C)CC)C(=O)N(C)CC(=O)N(C)[C@H]3C/C=C\CCN(C3=O)[C@@H](Cc3ccc(F)cc3)C(=O)N(C)CC(=O)N[C@@H](CCc3cc(F)c(C(F)(F)F)c(F)c3)C(=O)N2C1 [PP1519] | – | – | – | – | A (a compound having 10 or more and less than 20 is denoted as A) | A (a compound having 10 or more and less than 20 is denoted as A) |
